Active and inactive are the calls of the source. No cut-off for these calls is given here.
How the values were obtained:
[1] = tested on: Baculoviral IAP repeat-containing protein 2/Atrophin-1 (Homo sapiens), Q13490+P54259 [UNDEFINED MUTATION]; test: Protac activity at C-IAP1/atrophin-1 mutant in fibroblasts derived from DRPLA patient assessed as reduction in mutant atrophin-1 expression after 24 to 48 hrs by Western blot analysis
[2] = tested on: Baculoviral IAP repeat-containing protein 2/Ataxin-7 (Homo sapiens), Q13490+O15265 [UNDEFINED MUTATION]; test: Protac activity at C-IAP1/ataxin-7 mutant in fibroblasts derived from SCA7 patient assessed as reduction in mutant ataxin-7 expression after 24 to 48 hrs by Western blot analysis
Sequence of Baculoviral IAP repeat-containing protein 2/Ataxin-7 (Homo sapiens), Q13490+O15265 [UNDEFINED MUTATION] (O15265 whole entry, looked up, change not shown): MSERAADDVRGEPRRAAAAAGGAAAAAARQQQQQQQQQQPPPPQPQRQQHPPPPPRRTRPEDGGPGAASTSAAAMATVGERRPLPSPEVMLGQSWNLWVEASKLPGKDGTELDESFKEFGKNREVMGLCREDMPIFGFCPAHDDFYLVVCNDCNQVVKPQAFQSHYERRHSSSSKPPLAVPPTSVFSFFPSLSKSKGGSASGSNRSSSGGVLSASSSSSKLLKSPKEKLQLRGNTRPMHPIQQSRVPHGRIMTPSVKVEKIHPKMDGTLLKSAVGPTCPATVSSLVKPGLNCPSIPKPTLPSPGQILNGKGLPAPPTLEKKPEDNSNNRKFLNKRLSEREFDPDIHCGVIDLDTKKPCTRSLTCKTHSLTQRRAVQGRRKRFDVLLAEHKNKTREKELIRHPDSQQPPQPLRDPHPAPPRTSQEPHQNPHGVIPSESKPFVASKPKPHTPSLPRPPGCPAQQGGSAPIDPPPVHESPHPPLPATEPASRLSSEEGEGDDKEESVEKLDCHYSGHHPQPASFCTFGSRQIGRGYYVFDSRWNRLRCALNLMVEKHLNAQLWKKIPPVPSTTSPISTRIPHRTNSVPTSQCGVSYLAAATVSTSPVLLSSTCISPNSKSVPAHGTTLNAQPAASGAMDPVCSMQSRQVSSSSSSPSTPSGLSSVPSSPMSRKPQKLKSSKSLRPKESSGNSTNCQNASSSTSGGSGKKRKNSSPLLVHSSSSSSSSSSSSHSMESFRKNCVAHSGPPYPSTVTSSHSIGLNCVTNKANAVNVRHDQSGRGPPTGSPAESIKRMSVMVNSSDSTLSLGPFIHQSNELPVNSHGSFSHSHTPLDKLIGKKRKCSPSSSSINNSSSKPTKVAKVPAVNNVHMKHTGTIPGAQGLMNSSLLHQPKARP
Sequence of Baculoviral IAP repeat-containing protein 2/Ataxin-7 (Homo sapiens), Q13490+O15265 [UNDEFINED MUTATION] (Q13490 whole entry, looked up, change not shown): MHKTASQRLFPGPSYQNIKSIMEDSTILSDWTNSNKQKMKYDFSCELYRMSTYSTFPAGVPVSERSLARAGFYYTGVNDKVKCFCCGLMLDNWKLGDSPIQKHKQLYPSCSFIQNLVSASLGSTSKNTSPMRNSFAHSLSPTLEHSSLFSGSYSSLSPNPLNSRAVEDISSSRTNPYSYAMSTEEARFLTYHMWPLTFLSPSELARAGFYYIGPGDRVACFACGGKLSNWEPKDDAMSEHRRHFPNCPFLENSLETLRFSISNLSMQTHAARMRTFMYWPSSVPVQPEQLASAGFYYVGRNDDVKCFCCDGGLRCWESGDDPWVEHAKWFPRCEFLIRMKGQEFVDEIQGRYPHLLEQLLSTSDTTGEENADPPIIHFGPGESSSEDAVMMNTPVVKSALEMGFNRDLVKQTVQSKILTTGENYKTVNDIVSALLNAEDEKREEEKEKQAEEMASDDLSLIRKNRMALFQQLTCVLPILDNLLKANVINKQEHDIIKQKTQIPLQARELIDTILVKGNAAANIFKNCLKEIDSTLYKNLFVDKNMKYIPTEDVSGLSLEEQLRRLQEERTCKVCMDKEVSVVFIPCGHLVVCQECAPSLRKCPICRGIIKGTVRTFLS

[3] = tested on: Baculoviral IAP repeat-containing protein 2/Ataxin-3 (Homo sapiens), Q13490+P54252 [UNDEFINED MUTATION]; test: Protac activity at C-IAP1/Ataxin-3 mutant in fibroblasts derived from SCA3 patient assessed as reduction in mutant ataxin-3 expression after 24 to 48 hrs by Western blot analysis
Sequence of Baculoviral IAP repeat-containing protein 2/Ataxin-3 (Homo sapiens), Q13490+P54252 [UNDEFINED MUTATION] (P54252 whole entry, looked up, change not shown): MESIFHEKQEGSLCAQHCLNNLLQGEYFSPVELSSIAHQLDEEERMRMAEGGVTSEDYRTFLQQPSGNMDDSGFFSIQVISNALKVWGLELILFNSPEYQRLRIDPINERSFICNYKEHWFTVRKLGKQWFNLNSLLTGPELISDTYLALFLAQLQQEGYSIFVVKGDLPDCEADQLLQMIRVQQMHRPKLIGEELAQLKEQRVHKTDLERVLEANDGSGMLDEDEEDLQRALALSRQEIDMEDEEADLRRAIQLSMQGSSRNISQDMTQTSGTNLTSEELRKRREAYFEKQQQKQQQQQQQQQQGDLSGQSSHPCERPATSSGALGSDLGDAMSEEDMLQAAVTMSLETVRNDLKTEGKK
Sequence of Baculoviral IAP repeat-containing protein 2/Ataxin-3 (Homo sapiens), Q13490+P54252 [UNDEFINED MUTATION] (Q13490 whole entry, looked up, change not shown): as the sequence (Q13490 whole entry, looked up, change not shown) above

[4] = tested on: Baculoviral IAP repeat-containing protein 2/Ataxin-3 (Homo sapiens), Q13490+P54252 [UNDEFINED MUTATION]; test: Protac activity at C-IAP1/ataxin-3 mutant in fibroblasts derived from SCA3 patient assessed as reduction in mutant ataxin-3 expression at 10 uM by Western blot analysis; conditions: TDE = time-dependent effect
[5] = tested on: Baculoviral IAP repeat-containing protein 2/Atrophin-1 (Homo sapiens), Q13490+P54259 [UNDEFINED MUTATION]; test: Protac activity at C-IAP1/atrophin-1 mutant in fibroblasts derived from DRPLA patient assessed as reduction in mutant atrophin-1 expression at 10 uM by Western blot analysis; conditions: TDE = time-dependent effect
[6] = tested on: Baculoviral IAP repeat-containing protein 2/Ataxin-7 (Homo sapiens), Q13490+O15265 [UNDEFINED MUTATION]; test: Protac activity at C-IAP1/ataxin-7 mutant in fibroblasts derived from SCA7 patient assessed as reduction in mutant ataxin-7 expression at 10 uM by Western blot analysis; conditions: TDE = time-dependent effect
[7] = tested on: Baculoviral IAP repeat-containing protein 2/Atrophin-1 (Homo sapiens), Q13490+P54259 [UNDEFINED MUTATION]; test: Protac activity at C-IAP1/atrophin-1 mutant in fibroblasts derived from DRPLA patient assessed as reduction in mutant atrophin-1 expression at 10 uM after 24 hrs by Western blot analysis
[8] = tested on: Baculoviral IAP repeat-containing protein 2/Ataxin-7 (Homo sapiens), Q13490+O15265 [UNDEFINED MUTATION]; test: Protac activity at C-IAP1/ataxin-7 mutant in fibroblasts derived from SCA7 patient assessed as reduction in mutant ataxin-7 expression at 10 uM after 24 hrs in presence of proteasome inhibitor epoxomicin by Western blot analysis
[9] = tested on: Baculoviral IAP repeat-containing protein 2/Ataxin-7 (Homo sapiens), Q13490+O15265 [UNDEFINED MUTATION]; test: Protac activity at C-IAP1/ataxin-7 mutant in fibroblasts derived from SCA7 patient assessed as reduction in mutant ataxin-7 expression at 10 uM after 24 hrs by Western blot analysis
[10] = tested on: Baculoviral IAP repeat-containing protein 2/Atrophin-1 (Homo sapiens), Q13490+P54259 [UNDEFINED MUTATION]; test: Protac activity at C-IAP1/atrophin-1 mutant in fibroblasts derived from DRPLA patient assessed as reduction in mutant atrophin-1 expression at 10 uM after 24 hrs in presence of proteasome inhibitor MG132 by Western blot analysis
[11] = tested on: Baculoviral IAP repeat-containing protein 2/Ataxin-7 (Homo sapiens), Q13490+O15265 [UNDEFINED MUTATION]; test: Protac activity at C-IAP1/ataxin-7 mutant in fibroblasts derived from SCA7 patient assessed as reduction in mutant ataxin-7 expression at 10 uM after 24 hrs in presence of proteasome inhibitor MG132 by Western blot analysis
[12] = tested on: Baculoviral IAP repeat-containing protein 2/Atrophin-1 (Homo sapiens), Q13490+P54259 [UNDEFINED MUTATION]; test: Protac activity at C-IAP1/atrophin-1 mutant in fibroblasts derived from DRPLA patient assessed as reduction in mutant atrophin-1 expression at 10 uM after 24 hrs in presence of proteasome inhibitor epoxomicin by Western blot analysis

Sequence of Baculoviral IAP repeat-containing protein 2/Atrophin-1 (Homo sapiens), Q13490+P54259 [UNDEFINED MUTATION] (P54259 whole entry, looked up, change not shown): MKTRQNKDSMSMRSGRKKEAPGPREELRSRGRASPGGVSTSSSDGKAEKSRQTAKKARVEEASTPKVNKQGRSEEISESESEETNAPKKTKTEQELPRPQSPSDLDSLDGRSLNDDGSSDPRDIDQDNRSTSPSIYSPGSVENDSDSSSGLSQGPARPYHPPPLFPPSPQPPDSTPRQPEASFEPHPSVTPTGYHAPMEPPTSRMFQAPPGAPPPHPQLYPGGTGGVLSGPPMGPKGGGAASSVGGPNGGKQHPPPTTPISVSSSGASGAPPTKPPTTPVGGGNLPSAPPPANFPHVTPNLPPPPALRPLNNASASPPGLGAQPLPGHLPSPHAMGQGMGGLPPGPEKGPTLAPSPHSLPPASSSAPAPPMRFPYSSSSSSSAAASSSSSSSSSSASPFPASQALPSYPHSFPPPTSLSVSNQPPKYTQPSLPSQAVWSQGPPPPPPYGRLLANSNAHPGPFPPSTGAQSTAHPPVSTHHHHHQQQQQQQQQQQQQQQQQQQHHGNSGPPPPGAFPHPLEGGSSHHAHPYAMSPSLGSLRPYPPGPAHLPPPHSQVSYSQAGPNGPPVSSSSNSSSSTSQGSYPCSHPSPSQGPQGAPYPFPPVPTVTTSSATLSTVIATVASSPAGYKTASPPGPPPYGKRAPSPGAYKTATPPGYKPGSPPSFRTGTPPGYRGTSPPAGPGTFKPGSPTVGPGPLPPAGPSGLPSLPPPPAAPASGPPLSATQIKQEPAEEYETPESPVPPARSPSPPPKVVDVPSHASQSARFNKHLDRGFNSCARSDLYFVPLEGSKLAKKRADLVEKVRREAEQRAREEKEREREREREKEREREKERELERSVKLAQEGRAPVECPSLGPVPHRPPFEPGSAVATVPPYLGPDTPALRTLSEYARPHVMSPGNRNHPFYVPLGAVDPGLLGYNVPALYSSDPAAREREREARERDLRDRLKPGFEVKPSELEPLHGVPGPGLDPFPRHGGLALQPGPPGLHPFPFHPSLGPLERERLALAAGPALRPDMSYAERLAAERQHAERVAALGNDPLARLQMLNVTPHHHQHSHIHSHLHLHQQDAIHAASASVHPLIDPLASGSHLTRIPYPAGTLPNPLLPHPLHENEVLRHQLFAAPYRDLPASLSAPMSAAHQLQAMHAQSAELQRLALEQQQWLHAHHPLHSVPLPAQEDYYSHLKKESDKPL
Sequence of Baculoviral IAP repeat-containing protein 2/Atrophin-1 (Homo sapiens), Q13490+P54259 [UNDEFINED MUTATION] (Q13490 whole entry, looked up, change not shown): as the sequence (Q13490 whole entry, looked up, change not shown) above

Row | Structure (SMILES) | Activity [1] | Activity [2] | Activity [3] | Activity [4] | Activity [5] | Activity [6] | Activity [7] | Activity [8] | Activity [9] | Activity [10] | Activity [11] | Activity [12]
1 | CC(C)C[C@H](NC(=O)[C@@H](O)[C@H](N)Cc1ccccc1)C(=O)NCCOCCOCCOc1ccc2nc(/N=N/c3ccc(N(C)C)cc3)sc2c1 | Dose-dependent effect | Dose-dependent effect | Dose-dependent effect | Tde | Tde | Tde |  |  |  |  |  | 
2 | Cc1ccc2nc(-c3ccc(NCCOCCOCCNC(=O)[C@H](CC(C)C)NC(=O)[C@@H](O)[C@H](N)Cc4ccccc4)cc3)sc2c1 | Dose-dependent effect | Dose-dependent effect | Dose-dependent effect | Tde | Tde | Tde | Active | inactive | Active | inactive | inactive | inactive
3 | CNC(=O)[C@H](CC(C)C)NC(=O)[C@@H](O)[C@H](N)Cc1ccccc1 |  |  |  |  |  |  | inactive |  | inactive |  |  | 
4 | CNc1ccc(-c2nc3ccc(C)cc3s2)cc1 |  |  |  |  |  |  | inactive |  | inactive |  |  | 
